Values after ≈ are worked out from the molar mass of the structure shown. Ends that are not written are not given here.
Key:
[1] = system: Chinese hamster ovary (CHO) cell line; experiment: cells; assay type: cell-based; settings: 48 h; for growth inhibition: SRB, OD 540 nm
Description: In vitro cytotoxicity was evaluated using sulforhodamine B dye assay (Skehan et al. [1990]). The Chinese hamster ovary cell line (CHO) was used for the assay. Camptothecin (CPT), an anticancer drug was used as standard. The 96-well tissue culture plate, containing different concentrations of lipopeptide (2.5- 25 μg/ml) and CHO cells, was incubated for 48 h and the cell growth was stopped with trichloroacetic acid (50% TCA, 50 μl). The optical density (OD) was recorded at 540 nm on ELISA reader and percent growth inhibition was calculated.

[2] = system: Salmonella typhimurium (TA98); experiment: Ames test (Salmonella reverse mutation test); assay type: cell-based
Description: Mutagenicity of the lipopeptide was evaluated by Ames test (Maron and Ames [1983]). This Salmonella reverse mutation test is based on histidine dependence and mutations in Salmonella typhimurium (TA98/ MTCC 1251, IMTECH, Chandigarh). Concentrations of the lipopeptide used for checking toxicity were 50 and 100 μg 0.1 ml^−1 plate^−1. The overnight grown, 0.1 ml bacterial culture and 0.1 ml of lipopeptide were added to 2.0 ml of top agar. The contents were mixed and poured onto glucose minimal agar plates immediately. The plates were […] incubated at 37°C for 48 h. The experiment was repeated to confirm the results. To determine the spontaneous reversion which is characteristic of the tester strain (TA 98), negative control (0.1 ml bacterial culture + 0.1 ml DMSO plate^−1) was run while 4-Nitro-o-phenylenediamine (20 μg 0.1 ml^−1 plate^−1) was used as a positive control mutagen. The mutagenic potential of the lipopeptide was determined by comparing the number of colonies with control plates where no test compound was added.

[3] = system: lipase; settings: lipopeptide 1.0 mg/ml + lipase (~9 U/mg) 1.0 mg/ml in 50 mM phosphate buffer pH 7.0, equal volumes (20 μl each), 37°C, 12 h; residual activity by disc diffusion
Description: (§1) Sensitivity to temperature was determined by incubating the purified lipopeptide at different temperatures viz. 50°C, 60°C, 70°C, 80°C , 90°C, 100°C and 121°C for different durations. To determine the optimum pH for activity, purified compound was incubated over pH range of 3.0–12.0 for 30 min at 37°C. The sensitivity of the lipopeptide (1.0 mg/ml) to enzymes was tested against proteinase K (~30 U/mg), trypsin (~10,000 U/mg) and lipase (~9 U/mg). All enzymes were purchased from Sigma Aldrich. Enzyme solutions were prepared at 1.0 mg/ml in 50 mM phosphate buffer (pH 7.0). Equal volumes of enzyme solution and antimicrobial compound (20 μl each) were mixed and incubated at 37°C for 12 h. The enzyme reaction was terminated by heating reaction mixture at 80°C and residual activity was determined by disc diffusion method.

[4] = biological target: T1, trypsin (Bos taurus, UniProt P00760); settings: lipopeptide 1.0 mg/ml + trypsin (~10,000 U/mg) 1.0 mg/ml in 50 mM phosphate buffer pH 7.0, equal volumes (20 μl each), 37°C, 12 h; residual activity by disc diffusion
T1 sequence (P00760 24-246): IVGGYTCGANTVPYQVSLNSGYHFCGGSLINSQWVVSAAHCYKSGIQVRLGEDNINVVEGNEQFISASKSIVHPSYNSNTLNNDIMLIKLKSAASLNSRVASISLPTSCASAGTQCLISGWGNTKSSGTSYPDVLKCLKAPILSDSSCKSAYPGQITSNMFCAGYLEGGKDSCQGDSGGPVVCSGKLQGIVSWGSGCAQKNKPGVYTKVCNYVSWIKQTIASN
Description: as §1

[5] = system: MRSA; experiment: Kirby-Bauer disk diffusion susceptibility test; assay type: cell-based, Staphylococcus aureus; settings: clinical isolate; 10 μg lipopeptide per 6 mm disc, Mueller-Hinton agar, 24-48 h; duplicates, repeated thrice
Description: (§2) Sensitivity of test organisms to purified lipopeptide was measured in terms of zone of inhibition using Kirby-Bauer disk diffusion susceptibility test (Bauer et al. [1966]). The plates containing Mueller-Hinton agar, yeast malt agar and potato dextrose agar were seeded with test bacteria, yeasts and fungi, respectively. Filter paper discs (6 mm) impregnated with 10 μg of lipopeptide were placed on media plates. The diameter of the resultant zone of inhibition was measured in mm after 24- 48 hours of incubation. Each experiment was performed in duplicates and repeated thrice. Various test organisms used in the study included Bacillus subtilis (MTCC 619), Mycobacterium smegmatis (MTCC 6), Staphylococcus epidermidis (MTCC 435), Escherichia coli (MTCC 1885), Klebsiella pneumoniae sub sp. pneumoniae (MTCC 109), Enterobacter aerogenes (MTCC 111), Salmonella typhi (MTCC 733), multi-drug resistant E. coli, MRSA, VRE, Candida albicans (MTCC 3017), Rhodotorula rubra (MTCC 248), Colletotrichum acutatum (MTCC 1037), Cercospora beticola (GenBank acc. no. KJ461435), Fusarium oxysporum f.sp. dianthi (MTCC 6659), and Alternaria brassicicola (MTCC 2102).

[6] = system: fungi; experiment: Kirby-Bauer disk diffusion susceptibility test; assay type: cell-based; settings: 10 μg per disc
Description: as §2

[7] = system: Mycobacterium smegmatis (MTCC 6); experiment: Kirby-Bauer disk diffusion susceptibility test; assay type: cell-based; settings: 10 μg lipopeptide per 6 mm disc, Mueller-Hinton agar, 24-48 h; duplicates, repeated thrice
Description: as §2

[8] = system: tested Gram-negative bacteria; experiment: Kirby-Bauer disk diffusion susceptibility test; assay type: cell-based; settings: 10 μg per disc
Description: as §2

[9] = system: Staphylococcus epidermidis (MTCC 435); experiment: Kirby-Bauer disk diffusion susceptibility test; assay type: cell-based; settings: 10 μg lipopeptide per 6 mm disc, Mueller-Hinton agar, 24-48 h; duplicates, repeated thrice
Description: as §2

[10] = system: Bacillus subtilis (MTCC 619); experiment: Kirby-Bauer disk diffusion susceptibility test; assay type: cell-based; settings: 10 μg lipopeptide per 6 mm disc, Mueller-Hinton agar, 24-48 h; duplicates, repeated thrice
Description: as §2

[11] = biological target: T2, proteinase K (Parengyodontium album, UniProt P06873); experiment: Sensitivity to enzymes; assay type: in vitro ADME; settings: lipopeptide 1.0 mg/ml + proteinase K (~30 U/mg) 1.0 mg/ml in 50 mM phosphate buffer pH 7.0, equal volumes (20 μl each), 37°C, 12 h; residual activity by disc diffusion
T2 construct: purchased Sigma Aldrich
T2 sequence (P06873 106-384): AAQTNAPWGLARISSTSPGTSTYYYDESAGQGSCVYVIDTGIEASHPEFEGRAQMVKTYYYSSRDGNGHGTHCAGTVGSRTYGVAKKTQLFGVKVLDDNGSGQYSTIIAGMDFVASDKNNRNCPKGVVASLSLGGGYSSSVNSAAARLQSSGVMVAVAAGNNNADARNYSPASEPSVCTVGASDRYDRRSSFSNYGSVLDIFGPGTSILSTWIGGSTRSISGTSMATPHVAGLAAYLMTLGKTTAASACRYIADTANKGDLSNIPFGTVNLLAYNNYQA
Text: (§3) All enzymes were purchased from Sigma Aldrich.

[12] = Heat stability assay; assay type: physicochemical; settings: for Residual activity (%): residual antimicrobial activity
Text: as §3

[13] = system: Methicillin Resistant Staphylococcus aureus (MRSA); experiment: MIC, microtiter plate dilution assay; assay type: cell-based; settings: clinical strain, 37°C, OD 600 nm at 24 and 48 h, triplicates
Description: (§4) The MIC of purified lipopeptide was evaluated by using a microtiter plate dilution assay. Test bacteria were grown to logarithmic phase under optimal conditions (up to 0.3 OD) and the test was performed in triplicates. To each well of the microtiter plate, 200 μl of fresh nutrient medium and 50 μl of bacterial suspension were added. Subsequently, different dilutions (50 μl) of freshly prepared samples were added to each well. The first column of the microtiter plate was left as a blank, containing fresh medium only. The microtiter plates were incubated at 37°C and OD was measured at 600 nm at 24 and 48 h using ELISA microplate reader (Bio-rad, Model 680XR).

[14] = system: Mycobacterium smegmatis (MTCC 6); experiment: MIC, microtiter plate dilution assay; assay type: cell-based; settings: 37°C, OD 600 nm at 24 and 48 h, triplicates
Description: as §4

[15] = system: Staphylococcus epidermidis (MTCC 435); experiment: MIC, microtiter plate dilution assay; assay type: cell-based; settings: 37°C, OD 600 nm at 24 and 48 h, triplicates
Description: as §4

[16] = system: Bacillus subtilis (MTCC 619); experiment: MIC, microtiter plate dilution assay; assay type: cell-based; settings: 37°C, OD 600 nm at 24 and 48 h, triplicates
Description: as §4

[17] = Surface tension, Du-Nouy-Ring method; assay type: physicochemical; settings: lipopeptide 0.2% (w/v), lowered from 72
Description: (§5) Biosurfactant property of lipopeptide was determined using the qualitative drop-collapse test (Youssef et al. [2004]). In this method, mineral oil (2 μl) was added to 96-well microtitre plate. The plate was equilibrated for 1 h at 37°C and 5 μl of the lipopeptide (10 μg, dissolved in water) was added to the surface of the oil and drop shape was observed after 1 min. The surface tension of a lipopeptide (0.2%, w/v) was measured using Du-Nouy-Ring method (Du Noüy and Pierre [1925]).

[18] = Qualitative drop-collapse test; assay type: physicochemical; settings: 2 μl mineral oil, 5 μl lipopeptide (10 μg, dissolved in water), drop shape after 1 min
Description: as §5

[19] = Effect of pH on lipopeptide activity; assay type: physicochemical; settings: for Residual activity (%): residual antimicrobial activity
Text: as §3

[20] = system: lipase; settings: ref Guo et al. 2012; cited from earlier work
Text: (§6) Antimicrobial lipopeptides have been purified from many bacterial genera including several Streptomyces spp. such as S. violaceus var. aspartocinius (aspartocin), S. griseoflavus (tsushimycin), S. viridochromogens (laspartomycin), S. coelicolor (calcium-dependent antibiotic), S. roseosporus (daptomycin), S. fradiae (A54145), S. parvulus var. parvuli (parvuline) and S. canus (amphomycin) (Schneider et al. [2009]). The present study reports the production of another novel lipopeptide from a Streptomyces sp. The primary structure of lipopeptide was determined using a combination of chemical rea ...

[21] = biological target: T1, trypsin; parameters: purchased Sigma Aldrich; settings: ref Guo et al. 2012; cited from earlier work
Text: as §6

Molecule: CC[C@@]1(O)C(=O)OCc2c1cc1n(c2=O)Cc2cc3ccccc3nc2-1 [camptothecin, Camptothecin, reference compound]
- IC50 ([1]; Cricetulus griseus, CHO cells, SRB assay): 0.959 µg/mL (≈ 2.75 µM)

Molecule: Nc1ccc([N+](=O)[O-])cc1N [positive mutagen, 4-Nitro-o-phenylenediamine, reference compound]
- number of revertant colonies ([2]; positive control, 20 μg plate^-1, compared with negative control): considerably higher

Molecule: ATGSHQ [lipopeptide, novel antimicrobial lipopeptide from Streptomyces amritsarensis; Ala-Thr-Gly-Ser-His-Gln, C-terminal amino acid linked to aliphatic chain -(CH2)7-CH2-(CH3)2-]
- stability to lipase [3]: resistant
- stability to trypsin [4]: resistant
- inhibition zone [5]: 13 mm
- antimicrobial activity [6]: did not show activity
- inhibition zone [7]: 15 mm
- antimicrobial activity [8]: did not show activity
- inhibition zone [9]: 17 mm
- inhibition zone [10]: 21 mm
- stability to proteinase K [11]: negligible loss in activity
- Residual activity (%) ([12]; 50°C, 1 h): 100%
- Residual activity (%) ([12]; 60°C, 1 h): 100%
- heat stability ([12]; 70°C for 1 h): completely stable
- Residual activity (%) ([12]; 70°C, 1 h): 100%
- Residual activity (%) ([12]; 80°C, 1 h): 84.2%
- Residual activity (%) ([12]; 90°C, 15 min): 95.0%
- Residual activity (%) ([12]; 100°C, 15 min): 86.3%
- loss of activity ([12]; 100°C, 15 minutes incubation): 13.7%
- Residual activity (%) ([12]; 121°C, 15 min (304 KPa), autoclaving): 81.8%
- reduction of antimicrobial activity ([12]; after autoclaving (121°C for 15 min)): 18.2%
- growth inhibition ([1]; 2.5 μg/ml): 2.9%
- growth inhibition ([1]; 6.25 μg/ml): 16.8%
- growth inhibition ([1]; 12.5 μg/ml): 19.25%
- growth inhibition ([1]; 18.75 μg/ml): 23.28%
- growth inhibition ([1]; 25 μg/ml): 28.9%
- MIC [13]: 45 µg/mL
- MIC [14]: 25 µg/mL
- MIC [15]: 15 µg/mL
- MIC [16]: 10 µg/mL
- mutagenicity ([2]; 50 and 100 μg/0.1 ml per plate, 48 hours at 37°C): non-mutagenic
- surface tension of water [17]: 37 mN m^−1
- drop-collapse test [18]: collapsed the oil drop
- change in activity profile ([19]; between pH 5.0–9.0): did not show any change
- Residual activity (%) ([19]; pH 2, 1 h/4°C): 0%
- Residual activity (%) ([19]; pH 3, 1 h/4°C): 72.7%
- Residual activity (%) ([19]; pH 4, 1 h/4°C): 84.6%
- Residual activity (%) ([19]; pH 5, 1 h/4°C): 100%
- Residual activity (%) ([19]; pH 6, 1 h/4°C): 100%
- Residual activity (%) ([19]; pH 7, 1 h/4°C): 100%
- Residual activity (%) ([19]; pH 8, 1 h/4°C): 100%
- Residual activity (%) ([19]; pH 9, 1 h/4°C): 100%
- Residual activity (%) ([19]; pH 10, 1 h/4°C): 86.3%
- Residual activity (%) ([19]; pH 11, 1 h/4°C): 68.1%
- Residual activity (%) ([19]; pH 12, 1 h/4°C): 0%

Molecule: paenibacterin
- resistance to lipase [20]: resistant
- resistance to trypsin [21]: resistant
